What was measured:
[1] = system: kochia; test: Test A preemergence; format: in vivo, Kochia scoparia
Procedure, shortened: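 Injury scores run from 0, no effect, to 100, complete control, judged by eye against untreated plants roughly 10 days after treatment. Chemicals carried a surfactant in a non-phytotoxic solvent and went onto loam–sand soil preemergence or onto one- to two-leaf seedlings postemergence.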

[2] = system: lambsquarters; test: Test E preemergence; format: in vivo, Chenopodium album; details: for Lambsquarters plant response rating: scale 0 to 100 (0 no effect, 100 complete control)
Procedure, shortened: (§1)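 Test chemicals formulated in a non-phytotoxic solvent mixture containing a surfactant were applied preemergence to seeds in silt loam soil or postemergence to plants at the 1- to 4-leaf stage in potting mix. After 14 to 21 days in a greenhouse, injury was visually rated against controls on a 0-100 scale (0 = no effect, 100 = complete control).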

[3] = system: wild poinsettia; test: Test E preemergence; format: in vivo, Euphorbia heterophylla; details: for Poinsettia, Wild plant response rating: scale 0 to 100 (0 no effect, 100 complete control)
Procedure, shortened: as §1

[4] = system: surinam grass; test: Test E preemergence; format: in vivo, Brachiaria decumbens; details: for Surinam Grass plant response rating: scale 0 to 100 (0 no effect, 100 complete control)
Procedure, shortened: as §1

[5] = system: large (Lg) crabgrass; test: Test E preemergence; format: in vivo, Digitaria sanguinalis; details: for Crabgrass, Large plant response rating: scale 0 to 100 (0 no effect, 100 complete control)
Procedure, shortened: as §1

[6] = system: fall panicum; test: Test E preemergence; format: in vivo, Panicum dichotomiflorum; details: for Panicum, Fall plant response rating: scale 0 to 100 (0 no effect, 100 complete control)
From the text: Seeds of plant species selected from corn (Zea mays), soybean (Glycine max), velvetleaf (Abutilon theophrasti), lambsquarters (Chenopodium album), wild poinsettia (Euphorbia heterophylla), palmer pigweed (Amaranthus palmeri), waterhemp (common waterhemp, Amaranthus rudis), surinam grass (Brachiaria decumbens), large (Lg) crabgrass (Digitaria sanguinalis), Brazilian crabgrass (Digitaria horizontalis), fall panicum (Panicum dichotomiflorum), giant foxtail (Setaria faberii), green foxtail (Setaria viridis), goosegrass (Eleusine indica), johnsongrass (Sorghum halepense), ragweed (common ragweed, Ambrosia elatior), barnyardgrass (Echinochloa crus-galli), sandbur (southern sandbur, Cenchrus echinatus), arrowleaf sida (Sida rhombifolia), Italian ryegrass (Lolium multiflorum), dayflower (Virginia (VA) dayflower, Commelina virginica), field bindweed (Convolvulus arvensis), morningglory (Ipomoea coccinea), nightshade (eastern black nightshade, Solanum ptycanthum), kochia (Kochia scoparia), yellow nutsedge (Cyperus esculentus), cocklebur (common cocklebur, Xanthium strumarium), smartweed (ladysthumb smartweed, and hairy beggarticks (Bidens pilosa), were planted into a silt loam soil and treated preemergence with test chemicals formulated in a non-phytotoxic solvent mixture which included a surfactant.
At the same time, plants from these crop and weed species and also horseweed (Canada horseweed, Conyza canadensis), waterhemp_RES1, (ALS & Triazine resistant common waterhemp, Amaranthus rudis), and waterhemp_RES2, (ALS & HPPD resistant common waterhemp, Amaranthus rudis) were planted in pots containing Redi-Earth® planting medium (Scotts Company, 14111 Scottslawn Road, Marysville, Ohio 43041) comprising spaghnum peat moss, vermiculite, wetting agent and starter nutrients were treated with postemergence applications of test chemicals formulated in the same manner. Plants ranged in height from 2 to 18 cm for postemergence treatments (1- to 4-leaf stage). Treated plants and controls were maintained in a greenhouse for 14 to 21 days, after which time all species were compared to controls and visually evaluated. Plant response ratings, summarized in Table E, are based on a scale of 0 to 100 where 0 is no effect and 100 is complete control. A dash (-) response means no test result.

[7] = system: goosegrass; test: Test E preemergence; format: in vivo, Eleusine indica; details: for Goosegrass plant response rating: scale 0 to 100 (0 no effect, 100 complete control)
Procedure, shortened: as §1

[8] = system: johnsongrass; test: Test E preemergence; format: in vivo, Sorghum halepense; details: for Johnsongrass plant response rating: scale 0 to 100 (0 no effect, 100 complete control)
Procedure, shortened: as §1

[9] = system: ragweed; test: Test E preemergence; format: in vivo, Ambrosia elatior; details: for Ragweed plant response rating: scale 0 to 100 (0 no effect, 100 complete control)
Procedure, shortened: as §1

[10] = system: barnyardgrass; test: Test E preemergence; format: in vivo, Echinochloa crus-galli; details: for Barnyardgrass plant response rating: scale 0 to 100 (0 no effect, 100 complete control); for Plant response rating, Barnyardgrass: scale 0 to 100, 0 no effect, 100 complete control
Procedure, shortened: as §1

[11] = system: dayflower; test: Test E preemergence; format: in vivo, Commelina virginica; details: for Dayflower, VA plant response rating: scale 0 to 100 (0 no effect, 100 complete control)
Procedure, shortened: as §1

[12] = system: hairy beggarticks; test: Test E preemergence; format: in vivo, Bidens pilosa; details: for Beggarticks plant response rating: scale 0 to 100 (0 no effect, 100 complete control); for Plant response rating, Beggarticks: scale 0 to 100, 0 no effect, 100 complete control
Procedure, shortened: as §1

[13] = 125 g ai/ha, scale 0 to 100, 0 no effect, 100 complete control

N#Cc1cccc(Oc2ncc(F)cn2)c1-n1cc(I)cn1 [Compound 86]
Plant response rating, Kochia ([1]; 125 g ai/ha, 0 to 100 scale where 0 is no effect and 100 is complete control): 100
Kochia plant response rating ([1]; 500 g ai/ha, 0 to 100 scale, 0 no effect, 100 complete control, approx. 10 days): 100
Lambsquarters plant response rating ([2]; 16 g ai/ha): 0
Lambsquarters plant response rating ([2]; 31 g ai/ha): 65
Lambsquarters plant response rating ([2]; 62 g ai/ha): 100
Plant response rating, Lambsquarters [2, 13]: 100
Poinsettia, Wild plant response rating ([3]; 16 g ai/ha): 0
Poinsettia, Wild plant response rating ([3]; 31 g ai/ha): 10
Poinsettia, Wild plant response rating ([3]; 62 g ai/ha): 20
Plant response rating, Poinsettia, Wild [3, 13]: 65
Surinam Grass plant response rating ([4]; 16 g ai/ha): 0
Surinam Grass plant response rating ([4]; 31 g ai/ha): 0
Surinam Grass plant response rating ([4]; 62 g ai/ha): 0
Plant response rating, Surinam Grass [4, 13]: 0
Crabgrass, Large plant response rating ([5]; 16 g ai/ha): 0
Crabgrass, Large plant response rating ([5]; 31 g ai/ha): 0
Crabgrass, Large plant response rating ([5]; 62 g ai/ha): 95
Plant response rating, Crabgrass, Large [5, 13]: 98
Panicum, Fall plant response rating ([6]; 16 g ai/ha): 0
Panicum, Fall plant response rating ([6]; 31 g ai/ha): 35
Panicum, Fall plant response rating ([6]; 62 g ai/ha): 90
Plant response rating, Panicum, Fall [6, 13]: 100
Goosegrass plant response rating ([7]; 16 g ai/ha): 0
Goosegrass plant response rating ([7]; 31 g ai/ha): 0
Goosegrass plant response rating ([7]; 62 g ai/ha): 50
Plant response rating, Goosegrass [7, 13]: 50
Johnsongrass plant response rating ([8]; 16 g ai/ha): 0
Johnsongrass plant response rating ([8]; 31 g ai/ha): 0
Johnsongrass plant response rating ([8]; 62 g ai/ha): 65
Plant response rating, Johnsongrass [8, 13]: 65
Ragweed plant response rating ([9]; 16 g ai/ha): 0
Ragweed plant response rating ([9]; 31 g ai/ha): 0
Ragweed plant response rating ([9]; 62 g ai/ha): 5
Plant response rating, Ragweed [9, 13]: 20
Barnyardgrass plant response rating ([10]; 16 g ai/ha, preemergence): 0
Barnyardgrass plant response rating ([10]; 31 g ai/ha, preemergence): 0
Plant response rating, Barnyardgrass ([10]; Preemergence, 62 g ai/ha): 0
Plant response rating, Barnyardgrass ([10]; preemergence, 125 g ai/ha): 30
Dayflower, VA plant response rating ([11]; 16 g ai/ha): 0
Dayflower, VA plant response rating ([11]; 31 g ai/ha): 0
Dayflower, VA plant response rating ([11]; 62 g ai/ha): 30
Plant response rating, Dayflower, VA [11, 13]: 65
Beggarticks plant response rating ([12]; 16 g ai/ha, preemergence): 0
Beggarticks plant response rating ([12]; 31 g ai/ha, preemergence): 0
Plant response rating, Beggarticks ([12]; Preemergence, 62 g ai/ha): 35
Plant response rating, Beggarticks ([12]; preemergence, 125 g ai/ha): 70
